Measurements published in ChEMBL document CHEMBL1201861, “Genomics of Drug Sensitity in Cancer screening data, Wellcome Trust Sanger Institute”.

How the values were obtained:
[1] = system: RT-112; assay: cells; type: functional, cell-based; conditions: Homo sapiens
Description: SANGER: Inhibition of human RT-112 cell growth in a cell viability assay.

[2] = system: COLO-741; assay: cells; type: functional, cell-based; conditions: Homo sapiens
Description: SANGER: Inhibition of human COLO-741 cell growth in a cell viability assay.

[3] = system: HuCCT-1; assay: cells; type: functional, cell-based, HuCCT1; conditions: Homo sapiens;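 also: growth inhibition of HuCCT-1 cells, read out by a cell viability assay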
Description: SANGER: Inhibition of human HuCCT1 cell growth in a cell viability assay.

[4] = system: NCI-H441; assay: cells; type: functional, cell-based; conditions: Homo sapiens;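 also: growth inhibition of NCI-H441 cells, read out with a cell viability assay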
Description: SANGER: Inhibition of human NCI-H441 cell growth in a cell viability assay.

[5] = system: HEC-1; assay: cells; type: functional, cell-based; conditions: Homo sapiens;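 also: growth inhibition of the cell line, read out with a cell viability assay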
Description: SANGER: Inhibition of human HEC-1 cell growth in a cell viability assay.

[6] = system: KYSE-520 cell line; assay: cells; type: functional, cell-based; conditions: Homo sapiens;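 also: growth inhibition of human KYSE-520 cells, read out with a viability assay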
Description: SANGER: Inhibition of human KYSE-520 cell growth in a cell viability assay.

[7] = system: KYSE-70 cell line; assay: cells; type: functional, cell-based; conditions: Homo sapiens;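 also: cell viability assay read-out, with IC50 expressing suppression of KYSE-70 cell growth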
Description: SANGER: Inhibition of human KYSE-70 cell growth in a cell viability assay.

[8] = system: SK-LU-1; assay: cells; type: functional, cell-based; conditions: Homo sapiens;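 also: cell viability assay measuring growth inhibition of human SK-LU-1 cells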
Description: SANGER: Inhibition of human SK-LU-1 cell growth in a cell viability assay.

[9] = system: OVCAR-8; assay: cells; type: functional, cell-based; conditions: Homo sapiens;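 also: growth inhibition of human OVCAR-8 cells, read out by a cell viability assay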
Description: SANGER: Inhibition of human OVCAR-8 cell growth in a cell viability assay.

[10] = system: Daoy; assay: cells; type: functional, cell-based; conditions: Homo sapiens;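 also: daoy cell growth inhibition, read out as cell viability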
Description: SANGER: Inhibition of human Daoy cell growth in a cell viability assay.

[11] = system: A204; assay: cells; type: functional, cell-based; conditions: Homo sapiens;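 also: growth inhibition of human A204 cells, read out with a cell viability assay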
Description: SANGER: Inhibition of human A204 cell growth in a cell viability assay.

[12] = system: P12-Ichikawa; assay: cells; type: functional, cell-based; conditions: Homo sapiens
[13] = system: OVCAR-3; assay: cells; type: functional, cell-based; conditions: Homo sapiens;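 also: growth inhibition of human OVCAR-3 cells, determined by a cell viability assay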
Description: SANGER: Inhibition of human OVCAR-3 cell growth in a cell viability assay.

[14] = system: NB7; assay: cells; type: functional, cell-based; conditions: Homo sapiens;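 also: growth inhibition of NB7 cells, read out with a cell viability assay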
Description: SANGER: Inhibition of human NB7 cell growth in a cell viability assay.

[15] = system: SW1573; assay: cells; type: functional, cell-based; conditions: Homo sapiens;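 also: growth inhibition of SW1573 cells, read out with a cell viability assay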
Description: SANGER: Inhibition of human SW1573 cell growth in a cell viability assay.

[16] = system: SAOS-2; assay: cells; type: functional, cell-based; conditions: Homo sapiens;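 also: growth inhibition of human Saos-2 cells determined by a cell viability assay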
Description: SANGER: Inhibition of human Saos-2 cell growth in a cell viability assay.

[17] = system: UACC-62; assay: cells; type: functional, cell-based; conditions: Homo sapiens;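 also: growth inhibition of human UACC-62 cells, read out by a cell viability assay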
Description: SANGER: Inhibition of human UACC-62 cell growth in a cell viability assay.

[18] = system: SK-MES-1; assay: cells; type: functional, cell-based; conditions: Homo sapiens;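 also: growth inhibition of human SK-MES-1 cells, read out with a cell viability assay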
Description: SANGER: Inhibition of human SK-MES-1 cell growth in a cell viability assay.

[19] = system: PFSK-1; assay: cells; type: functional, cell-based; conditions: Homo sapiens;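 also: cell viability assay measuring how strongly compounds suppress growth of human PFSK-1 cells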
Description: SANGER: Inhibition of human PFSK-1 cell growth in a cell viability assay.

[20] = system: MDA-MB-175-VII; assay: cells; type: functional, cell-based; conditions: Homo sapiens
[21] = system: HCC70; assay: cells; type: functional, cell-based; conditions: Homo sapiens;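 also: cell viability assay measuring how strongly the compound suppresses proliferation of HCC70 cells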
Description: SANGER: Inhibition of human HCC70 cell growth in a cell viability assay.

[22] = system: PC-3; assay: cells; type: functional, cell-based; conditions: Homo sapiens;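 also: cell viability assay measuring growth inhibition of PC-3 cells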
Description: SANGER: Inhibition of human PC-3 cell growth in a cell viability assay.

[23] = system: MCF7; assay: cells; type: functional, cell-based; conditions: Homo sapiens;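 also: growth inhibition of human MCF7 cells, read out with a cell viability assay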
Description: SANGER: Inhibition of human MCF7 cell growth in a cell viability assay.

[24] = system: MDA-MB-231; assay: cells; type: functional, cell-based; conditions: Homo sapiens
Description: SANGER: Inhibition of human MDA-MB-231 cell growth in a cell viability assay.

[25] = system: RVH-421; assay: cells; type: functional, cell-based; conditions: Homo sapiens
Description: SANGER: Inhibition of human RVH-421 cell growth in a cell viability assay.

[26] = system: S-117; assay: cells; type: functional, cell-based; conditions: Homo sapiens
Description: SANGER: Inhibition of human S-117 cell growth in a cell viability assay.

[27] = system: MIA PaCa-2; assay: cells; type: functional, cell-based; conditions: Homo sapiens;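 also: growth inhibition of MIA PaCa-2 cells, read out with a cell viability assay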
Description: SANGER: Inhibition of human MIA-PaCa-2 cell growth in a cell viability assay.

[28] = system: MKN-45; assay: cells; type: functional, cell-based; conditions: Homo sapiens;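 also: growth inhibition of human MKN-45 cells, measured with a cell viability assay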
Description: SANGER: Inhibition of human MKN45 cell growth in a cell viability assay.

[29] = system: MG-63; assay: cells; type: functional, cell-based; conditions: Homo sapiens;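 also: growth inhibition of human MG-63 cells, read out with a cell viability assay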
Description: SANGER: Inhibition of human MG-63 cell growth in a cell viability assay.

[30] = system: SW756; assay: cells; type: functional, cell-based; conditions: Homo sapiens;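 also: growth inhibition of human SW756 cells, read out with a cell viability assay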
Description: SANGER: Inhibition of human SW756 cell growth in a cell viability assay.

[31] = system: MC-IXC; assay: cells; type: functional, cell-based; conditions: Homo sapiens;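 also: growth inhibition of MC-IXC cells, read out with a cell viability assay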
Description: SANGER: Inhibition of human MC-IXC cell growth in a cell viability assay.

[32] = system: TCC-SUP; assay: cells; type: functional, cell-based; conditions: Homo sapiens;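 also: growth inhibition of TCC-SUP cells, read out with a cell viability assay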
Description: SANGER: Inhibition of human TCCSUP cell growth in a cell viability assay.

[33] = system: ASPC1; assay: cells; type: functional, cell-based; conditions: Homo sapiens;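 also: growth inhibition of AsPC-1 cells, read out with a cell viability assay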
Description: SANGER: Inhibition of human AsPC-1 cell growth in a cell viability assay.

[34] = system: LCLC-103H cell line; assay: cells; type: functional, cell-based; conditions: Homo sapiens
Description: SANGER: Inhibition of human LCLC-103H cell growth in a cell viability assay.

[35] = system: M14; assay: cells; type: functional, cell-based; conditions: Homo sapiens;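 also: growth inhibition of M14 cells, read out with a cell viability assay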
Description: SANGER: Inhibition of human M14 cell growth in a cell viability assay.

[36] = system: CAMA-1; assay: cells; type: functional, cell-based; conditions: Homo sapiens;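 also: growth inhibition of CAMA-1 cells, read out with a cell viability assay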
Description: SANGER: Inhibition of human CAMA-1 cell growth in a cell viability assay.

[37] = system: NCI-H2122; assay: cells; type: functional, cell-based; conditions: Homo sapiens;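 also: growth inhibition of the cells, read out with a cell viability assay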
Description: SANGER: Inhibition of human NCI-H2122 cell growth in a cell viability assay.

[38] = system: CAKI-1; assay: cells; type: functional, cell-based; conditions: Homo sapiens;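 also: growth inhibition of CAKI-1 cells, measured by a cell viability assay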
Description: SANGER: Inhibition of human CAKI-1 cell growth in a cell viability assay.

[39] = system: KP-N-YN; assay: cells; type: functional, cell-based; conditions: Homo sapiens;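 also: growth inhibition of KP-N-YN cells, read out with a cell viability assay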
Description: SANGER: Inhibition of human KP-N-YN cell growth in a cell viability assay.

[40] = system: NCI-H810; assay: cells; type: functional, cell-based; conditions: Homo sapiens;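 also: IC50 reflects inhibition of cancer cell line growth, read out with a cell viability assay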
Description: SANGER: Inhibition of human NCI-H810 cell growth in a cell viability assay.

[41] = system: MDA-MB-157; assay: cells; type: functional, cell-based; conditions: Homo sapiens
Description: SANGER: Inhibition of human MDA-MB-157 cell growth in a cell viability assay.

[42] = system: HCC38; assay: cells; type: functional, cell-based; conditions: Homo sapiens;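 also: cell viability assay on the human HCC38 cell line, with IC50 marking the concentration that inhibits cell growth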
Description: SANGER: Inhibition of human HCC38 cell growth in a cell viability assay.

[43] = system: AN3-CA; assay: cells; type: functional, cell-based; conditions: Homo sapiens;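 also: growth inhibition of human AN3-CA cells measured by a cell viability assay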
Description: SANGER: Inhibition of human AN3-CA cell growth in a cell viability assay.

[44] = system: G-402; assay: cells; type: functional, cell-based; conditions: Homo sapiens
Description: SANGER: Inhibition of human G-402 cell growth in a cell viability assay.

[45] = system: UO-31; assay: cells; type: functional, cell-based; conditions: Homo sapiens
Description: SANGER: Inhibition of human U031 cell growth in a cell viability assay.

[46] = system: CAL-148; assay: cells; type: functional, cell-based; conditions: Homo sapiens
Description: SANGER: Inhibition of human CAL-148 cell growth in a cell viability assay.

[47] = system: NCI-H1417; assay: cells; type: functional, cell-based; conditions: Homo sapiens;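 also: human NCI-H1417 cells, growth inhibition determined with a cell viability readout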
Description: SANGER: Inhibition of human NCI-H1417 cell growth in a cell viability assay.

[48] = system: NCI-H64; assay: cells; type: functional, cell-based; conditions: Homo sapiens;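 also: growth inhibition of NCI-H64 cells, read out with a cell viability assay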
Description: SANGER: Inhibition of human NCI-H64 cell growth in a cell viability assay.

[49] = system: NCI-H1522; assay: cells; type: functional, cell-based; conditions: Homo sapiens;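 also: growth inhibition of NCI-H1522 cells, read out with a cell viability assay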
Description: SANGER: Inhibition of human NCI-H1522 cell growth in a cell viability assay.

[50] = system: CMK; assay: cells; type: functional, cell-based; conditions: Homo sapiens;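 also: growth inhibition of CMK cells, read out as cell viability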
Description: SANGER: Inhibition of human CMK cell growth in a cell viability assay.

[51] = system: BL-70; assay: SANGER: Inhibition of human BL-70 cell growth in a cell viability assay.; type: functional, cell-based
[52] = system: JIYOYE; assay: cells; type: functional, cell-based; conditions: Homo sapiens
Description: SANGER: Inhibition of human JiyoyeP-2003 cell growth in a cell viability assay.

[53] = system: L-540; assay: cells; type: functional, cell-based; conditions: Homo sapiens;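 also: growth inhibition of the human L-540 cell line, read out with a viability assay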
Description: SANGER: Inhibition of human L-540 cell growth in a cell viability assay.

[54] = system: LP-1; assay: cells; type: functional, cell-based; conditions: Homo sapiens;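 also: growth inhibition of human LP-1 cells, with the read-out taken from a cell viability assay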
Description: SANGER: Inhibition of human LP-1 cell growth in a cell viability assay.

[55] = system: NALM-6; assay: cells; type: functional, cell-based; conditions: Homo sapiens;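 also: growth inhibition of NALM-6 cells, read out with a cell viability assay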
Description: SANGER: Inhibition of human NALM-6 cell growth in a cell viability assay.

[56] = system: IMR-5; assay: cells; type: functional, cell-based; conditions: Homo sapiens;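 also: growth inhibition of human IMR-5 cells, read out with a cell viability assay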
Description: SANGER: Inhibition of human IMR-5 cell growth in a cell viability assay.

[57] = system: LB647-SCLC; assay: cells; type: functional, cell-based; conditions: Homo sapiens;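 also: cell growth inhibition, read out by a viability assay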
Description: SANGER: Inhibition of human LB647-SCLC cell growth in a cell viability assay.

[58] = system: CESS; assay: SANGER: Inhibition of human CESS cell growth in a cell viability assay.; type: functional, cell-based
[59] = system: DK-MG; assay: cells; type: functional, cell-based; conditions: Homo sapiens;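 also: growth inhibition of DK-MG cells, read out with a cell viability assay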
Description: SANGER: Inhibition of human DK-MG cell growth in a cell viability assay.

[60] = system: CHP-212; assay: cells; type: functional, cell-based; conditions: Homo sapiens
Description: SANGER: Inhibition of human CHP-212 cell growth in a cell viability assay.

[61] = system: OAW-28; assay: cells; type: functional, cell-based; conditions: Homo sapiens;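 also: growth inhibition of OAW-28 cells, read out with a cell viability assay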
Description: SANGER: Inhibition of human OAW-28 cell growth in a cell viability assay.

[62] = system: RPMI-2650; assay: cells; type: functional, cell-based; conditions: Homo sapiens
Description: SANGER: Inhibition of human RPMI-2650 cell growth in a cell viability assay.

[63] = system: C32; assay: cells; type: functional, cell-based; conditions: Homo sapiens;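 also: cell viability assay, with IC50 reflecting inhibition of C32 cell growth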
Description: SANGER: Inhibition of human C32 cell growth in a cell viability assay.

[64] = system: CAL-85-1; assay: cells; type: functional, cell-based; conditions: Homo sapiens;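 also: growth inhibition of human CAL-85-1 cells, read out with a cell viability assay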
Description: SANGER: Inhibition of human CAL-85-1 cell growth in a cell viability assay.

Molecule `NC(=O)c1ncn([C@@H]2O[C@H](COP(=O)(O)O)[C@@H](O)[C@H]2O)c1N` has an IC50 [1] of 1870 µM, an IC50 [2] of over 2000 µM and an IC50 [3] of 1080 µM. For the same molecule, the IC50 [4] was over 2000 µM, the IC50 [5] was over 2000 µM and the IC50 [6] was 382 µM. For the same molecule, the IC50 [7] was over 2000 µM, the IC50 [8] was 1700 µM and the IC50 [9] was over 2000 µM. It also gave an IC50 [10] of 1510 µM, an IC50 [11] of over 2000 µM and an IC50 [12] of 1470 µM. The IC50 [13] was over 2000 µM, the IC50 [14] was 901 µM and the IC50 [15] was over 2000 µM. For the same molecule, the IC50 [16] was over 2000 µM, the IC50 [17] was over 2000 µM and the IC50 [18] was over 2000 µM. The IC50 [19] was over 2000 µM, the IC50 [20] was over 2000 µM and the IC50 [21] was 1270 µM. It also gave an IC50 [22] of 349 µM, an IC50 [23] of 901 µM and an IC50 [24] of over 2000 µM. For the same molecule, the IC50 [25] was over 2000 µM, the IC50 [26] was over 2000 µM and the IC50 [27] was over 2000 µM. It also gave an IC50 [28] of over 2000 µM, an IC50 [29] of over 2000 µM and an IC50 [30] of over 2000 µM. It also gave an IC50 [31] of 1780 µM, an IC50 [32] of 1030 µM and an IC50 [33] of 1330 µM. It also gave an IC50 [34] of 1370 µM, an IC50 [35] of 295 µM and an IC50 [36] of 354 µM. The IC50 [37] was 507 µM, the IC50 [38] was over 2000 µM and the IC50 [39] was over 2000 µM. It also gave an IC50 [40] of over 2000 µM, an IC50 [41] of 1210 µM and an IC50 [42] of over 2000 µM. It also gave an IC50 [43] of over 2000 µM, an IC50 [44] of 1320 µM and an IC50 [45] of 766 µM.
Work on `Cc1n[nH]c2ccc(-c3cncc(OC[C@@H](N)Cc4c[nH]c5ccccc45)c3)cc12` [A-443654] yielded an IC50 [46] of 0.0883 µM, an IC50 [47] of 0.584 µM and an IC50 [48] of over 1.02 µM. For the same molecule, the IC50 [49] was 0.464 µM, the IC50 [50] was 0.275 µM and the IC50 [51] was 0.057 µM. For the same molecule, the IC50 [14] was over 1.02 µM, the IC50 [52] was 0.188 µM and the IC50 [53] was 0.346 µM. For the same molecule, the IC50 [54] was over 1.02 µM, the IC50 [55] was 0.128 µM and the IC50 [56] was 0.6 µM. The IC50 [57] was 0.224 µM and the IC50 [58] was 0.191 µM.
In the case of `CC[C@@]1(O)C(=O)OCc2c1cc1n(c2=O)Cc2cc3ccccc3nc2-1` [CAMPTOTHECIN], the IC50 [1] is reported as 0.0149 µM, the IC50 [3] is reported as 0.0732 µM and the IC50 [4] is reported as 0.0285 µM. The IC50 [5] was 0.0181 µM, the IC50 [6] was 0.0826 µM and the IC50 [7] was 0.0921 µM. For the same molecule, the IC50 [8] was 0.00471 µM, the IC50 [9] was 0.00727 µM and the IC50 [10] was 0.000481 µM. It also gave an IC50 [11] of 0.00452 µM, an IC50 [59] of 0.0847 µM and an IC50 [12] of 0.000102 µM. It also gave an IC50 [60] of 0.00103 µM, an IC50 [13] of over 0.1 µM and an IC50 [61] of 0.00726 µM. The IC50 [14] was 0.0168 µM, the IC50 [15] was 0.00235 µM and the IC50 [16] was 0.0178 µM. It also gave an IC50 [17] of 0.031 µM, an IC50 [18] of 0.0108 µM and an IC50 [19] of 0.026 µM. It also gave an IC50 [20] of 0.083 µM, an IC50 [21] of 0.0455 µM and an IC50 [22] of 0.00975 µM. It also gave an IC50 [23] of 0.00643 µM, an IC50 [25] of 0.0715 µM and an IC50 [26] of 0.0781 µM. It also gave an IC50 [62] of 0.00222 µM, an IC50 [27] of 0.00276 µM and an IC50 [28] of 0.0275 µM. It also gave an IC50 [29] of 0.00765 µM, an IC50 [30] of 0.00421 µM and an IC50 [31] of 0.000513 µM. It also gave an IC50 [63] of 0.0134 µM, an IC50 [32] of 0.039 µM and an IC50 [34] of 0.0205 µM. The IC50 [35] was 0.00995 µM, the IC50 [36] was 0.0874 µM and the IC50 [37] was 0.013 µM. It also gave an IC50 [38] of 0.00535 µM, an IC50 [40] of 0.0503 µM and an IC50 [41] of 0.00757 µM. For the same molecule, the IC50 [42] was 0.0129 µM, the IC50 [43] was 0.034 µM and the IC50 [64] was over 0.1 µM. It also gave an IC50 [44] of 0.0245 µM and an IC50 [45] of 0.0341 µM.
Molecule `Cc1nc(Nc2ncc(C(=O)Nc3c(C)cccc3Cl)s2)cc(N2CCN(CCO)CC2)n1` [DASATINIB] has an IC50 [46] of over 1.28 µM, an IC50 [47] of over 1.28 µM and an IC50 [48] of over 1.28 µM. For the same molecule, the IC50 [49] was over 1.28 µM, the IC50 [50] was over 1.28 µM and the IC50 [51] was under 0.005 µM. The IC50 [14] was over 1.28 µM, the IC50 [52] was over 1.28 µM and the IC50 [53] was over 1.28 µM. The IC50 [54] was over 1.28 µM, the IC50 [55] was 0.193 µM and the IC50 [56] was over 1.28 µM. For the same molecule, the IC50 [57] was over 1.28 µM and the IC50 [58] was over 1.28 µM.
Work on `Cc1[nH]c(/C=C2\C(=O)Nc3ccc(S(=O)(=O)Cc4c(Cl)cccc4Cl)cc32)c(C)c1C(=O)N1CCC[C@@H]1CN1CCCC1` [PHA-665752] yielded an IC50 [46] of over 2 µM, an IC50 [47] of over 2 µM and an IC50 [48] of over 2 µM. For the same molecule, the IC50 [49] was over 2 µM, the IC50 [50] was over 2 µM and the IC50 [51] was over 2 µM. The IC50 [14] was over 2 µM, the IC50 [52] was over 2 µM and the IC50 [53] was over 2 µM. For the same molecule, the IC50 [54] was over 2 µM, the IC50 [55] was over 2 µM and the IC50 [56] was over 2 µM. For the same molecule, the IC50 [57] was over 2 µM and the IC50 [58] was over 2 µM.
